Article PMC8920379, “The discovery of berberine erythrocyte-hemoglobin self-assembly delivery system: a neglected carrier underlying its pharmacokinetics” (Drug Delivery, 2022)
Several values for one entry are separate records, joined by “and”; a condition that tells them apart may be missing. Equal values may be shown once.

Columns and labels:
2% erythrocytes = assay: Hemolysis rate; assay type: cell-based, rats; settings: 37 °C, 2 h
Description: (§1) The whole blood was collected from rats by orbital plexus vein and transferred into a blood-collection tube containing ethylene diamine tetraacetic acid (EDTA) as an anticoagulant. The whole blood was centrifuged at 3000 rpm for 10 min. The plasma and the buffy coat in the supernatant were removed by aspiration, and erythrocytes were washed three times in cold phosphate buffer saline (PBS) and centrifuged for 10 min at 3000 rpm, and then resuspended in an appropriate volume of PBS.
(§2) The hematocrite of washed erythrocytes was adjusted by PBS to 2%. In 5-mL Eppendorf tubes, 1 mL of 2% erythrocytes was incubated with 1 mL of different concentrations of BBR hydrochloride at 37 °C for 2 h. The final concentrations of BBR hydrochloride in reaction system were 0.125, 0.250, 0.500, 1.000, 1.333, 1.500, 1.600 mg/mL, respectively. One mL of 2% erythrocytes incubated with 1 mL saline solution served as the […] group while 1 mL 2% erythrocytes incubated with 1 mL distilled water served as the […] one. After incubation, the erythrocytes suspension was centrifuged at 3000 rpm for 10 min. Then 150 μL supernatant was added to the 96-well plate. Three parallel wells were set for each group, and the absorbance at 545 nm of each sample well was measured by a microplate reader. The imaging system was employed to observe whether BBR induced hemolysis. The hemolysis rate was calculated according to the following formula: Hemolysis rate (%) = [(ODsample−ODnegative)/(ODpositive −ODnegative)] ×100%

Hemolysis rate = assay type: cell-based, rats; settings: rat, washed rat erythrocytes, 2% hematocrit suspension, 2% erythrocytes, 37 °C
Description: as §1, §2

[1] = Erythrocytes/plasma partition coefficient of BBR in vivo; set-up: species or system SD rats; settings: for Ce (drug concentration in erythrocytes) / Ce/p (erythrocytes/plasma partition coefficient) / Cp (drug concentration in plasma): individual rats no. 1-6
Description: After six SD rats were intravenously administrated with BBR, blood samples were obtained from posterior orbital venous plexus to a heparinized tube at 5, 30, and 120 min, respectively, and then centrifuged at 2500 rpm for 10 min. After centrifugation, the upper layer (plasma) was collected, while the lower layer (blood cells) was washed three times with physiological saline and centrifuged for 5 min at 3000 rpm, and then resuspended in an appropriate volume of physiological saline, which was obtained as erythrocytes to perform the following procedure:
Piperine was added into the obtained plasma as the internal standard substance and then the samples were mixed with acetonitrile to precipitate protein. The mixtures were centrifuged at 8000 rpm for 10 min. The supernatants were collected and dried. The eluates were concentrated and re-dissolved for analysis.
The obtained erythrocytes were mixed with piperine and HC, and placed in a water bath at 60 °C for 6 h and then centrifuged at 12,000 rpm for 10 min. The supernatant was obtained and injected through a solid-phase extraction to separate drugs and impurities. The filtrate was collected, dried, and then re-dissolved with 200 μL acetonitrile for HPLC analysis (Chen et al., [2021]).

bovine hemoglobin (BHB) = molecular target: T1, bovine hemoglobin (BHB) (Bos taurus, UniProt P01966+P02070); assay: Circular dichroism of BHB-BBR systems; assay type: binding; settings: CD, BHB:BBR molar ratios up to 1:8, reduced from 36.87% for BHB alone, pH 7.4, 298 K
T1 construct: purchased Sigma Aldrich
T1 sequence (P01966 2-142 limits assumed): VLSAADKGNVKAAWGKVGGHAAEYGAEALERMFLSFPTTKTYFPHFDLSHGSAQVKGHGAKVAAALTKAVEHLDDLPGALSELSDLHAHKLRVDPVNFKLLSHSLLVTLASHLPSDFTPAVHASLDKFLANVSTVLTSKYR
T1 sequence (P02070 whole entry): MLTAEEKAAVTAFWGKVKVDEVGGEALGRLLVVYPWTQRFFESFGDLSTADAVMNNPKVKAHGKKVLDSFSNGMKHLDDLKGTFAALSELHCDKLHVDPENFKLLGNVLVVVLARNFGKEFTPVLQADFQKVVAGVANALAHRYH
Description: In addition, CD spectra were collected from 200 to 260 nm with three scans averaged for each CD spectrum. The molar ratio (1:1) of BHB: BBR was used for the measurement. Briefly, BHB and BBR were dissolved in Tris-HCl (pH 7.4), and the solutions were freeze-dried into powder. Raman spectra were measured from 2600 to 400 cm^−1 using the Nd-YAG laser (1064 nm). Due to the existence of inner filter effects, the fluorescence parameter was corrected using the equation: F=F0×10^(AEX+AEM/2) where F and F0 are the fluorescence intensity corrected and observed, respectively; AEX and AEM are the sums of the absorbance of samples at excitation and emission wavelengths (Chen et al., [2021]).
In this work, the molar ratios of 1:0, 1:2, 1:4 and 1:8 for BHB: BBR were utilized for the CD records. […] Besides, the helix of α chain can be calculated following the below equation: α−Helix(%)=−MRE208−4000/33000−4000×100 where MRE208 is the observed MRE value at 208 nm, 4000 is the MRE value of β-form and random coil conformation cross at 208 nm, and 33,000 is the MRE value of pure α-helix at 208 nm (Shobini et al., [2001]).

[2] = cited from earlier work

In the case of `COc1ccc2cc3[n+](cc2c1OC)CCc1cc2c(cc1-3)OCO2` [BBR, Berberine], the “hemolysis of the BBR-erythrocyte system” value (2% erythrocytes; BBR 1.00 mg/mL) is reported as “relatively stable without hemolysis”, the “hemolysis of the erythrocyte” value (2% erythrocytes; BBR concentration below 1.00 mg/mL) is reported as “no hemolysis” and the hemolysis at 2 h, 1.5 mg/mL (Hemolysis rate; BBR 1.50 mg/mL) is reported as 58.2%. The hemolysis at 2 h, 1.6 mg/mL (Hemolysis rate; BBR 1.60 mg/mL) was 89.7%, the “Ce (drug concentration in erythrocytes)” value ([1]; 5 min after 2.5 mg/kg) was 1.313 µM and 0.039 µM and 0.000 µM and 0.375 µM and 0.862 µM and 0.584 µM and the “Ce/p (erythrocytes/plasma partition coefficient)” value ([1]; 5 min after 2.5 mg/kg) was “∞ and 0.081 and 1.610 and 3.700 and 1.405”. The “Cp (drug concentration in plasma)” value ([1]; 5 min after 2.5 mg/kg) was 0.000 µM and 0.489 µM and 0.233 µM and 0.416 µM, the “Ce (drug concentration in erythrocytes)” value ([1]; 30 min after 2.5 mg/kg) was 0.044 µM and 0.212 µM and 0.026 µM and 0.176 µM and 0.539 µM and the “Ce/p (erythrocytes/plasma partition coefficient)” value ([1]; 30 min after 2.5 mg/kg) was “∞ and 0.090 and 0.897 and 0.875”. For the same molecule, the “Cp (drug concentration in plasma)” value ([1]; 30 min after 2.5 mg/kg) was 0.000 µM and 0.282 µM and 0.197 µM and 0.616 µM, the “Ce (drug concentration in erythrocytes)” value ([1]; 120 min after 2.5 mg/kg) was 0.225 µM and 0.000 µM and 0.132 µM and the “Ce/p (erythrocytes/plasma partition coefficient)” value ([1]; 120 min after 2.5 mg/kg) was “∞”. For the same molecule, the “Cp (drug concentration in plasma)” value ([1]; 120 min after 2.5 mg/kg) was 0.000 µM and 1.243 µM, the Kp at 5 min ([1]; SD, rat, erythrocytes/plasma, iv, 2.5 mg/kg, 5 min after intravenous administration, rats, read-out: Ce/p value (group value)) was 1.67 ± 1.5 and the Kp at 30 min ([1]; SD, rat, erythrocytes/plasma, iv, 2.5 mg/kg, 30 min after intravenous administration, rats, read-out: Ce/p value (group value)) was 0.62 ± 0.6. For the same molecule, the “α-helicity of BHB after addition of BBR” value (bovine hemoglobin (BHB)) was 33.53%, the “concentration of BBR in the liver relative to plasma” value ([2]; background statement of the introduction, no reference given) was “about 10 fold” and the “average concentration of BBR in liver relative to plasma” value ([2]; ref Yan et al., 2009, Tan et al., 2013, Yu et al., 2017) was 10–30 times.
